Experiments:
[1] = target: T1, Mitogen-activated protein kinase 13 (Homo sapiens) (UniProt O15264); assay: Inhibition of human full length p38 delta expressed in Escherichia coli cell assessed as substrate phosphorylation using fluorescence-labelled peptides as substrate at 0.2 uM after 90 mins by microfluidic peptide phosphorylation assay
T1 sequence (whole entry): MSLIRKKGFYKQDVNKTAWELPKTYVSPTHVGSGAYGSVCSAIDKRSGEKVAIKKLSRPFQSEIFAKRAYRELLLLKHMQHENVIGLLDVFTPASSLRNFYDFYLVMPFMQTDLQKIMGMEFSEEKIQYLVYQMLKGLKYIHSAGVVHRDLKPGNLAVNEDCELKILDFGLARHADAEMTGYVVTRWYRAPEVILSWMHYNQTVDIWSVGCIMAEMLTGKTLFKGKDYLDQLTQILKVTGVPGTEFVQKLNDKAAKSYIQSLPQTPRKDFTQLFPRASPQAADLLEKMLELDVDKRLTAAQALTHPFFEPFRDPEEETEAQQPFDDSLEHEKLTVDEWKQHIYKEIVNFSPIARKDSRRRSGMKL

[2] = target: Protein kinase C beta type (Homo sapiens) (UniProt P05771); assay: Inhibition of human truncated PKC beta1 expressed in baculovirus assessed as substrate phosphorylation using fluorescence-labelled peptides as substrate at 420 uM after 90 mins by microfluidic peptide phosphorylation assay
[3] = target: Hepatocyte growth factor receptor (Homo sapiens) (UniProt P08581); assay: Inhibition of human MET cytoplasmic domain expressed in baculovirus assessed as substrate phosphorylation using fluorescence-labelled peptides as substrate at 420 uM after 90 mins by microfluidic peptide phosphorylation assay
Sequence of Hepatocyte growth factor receptor (Homo sapiens) (P08581 whole entry, the tested form may be a part): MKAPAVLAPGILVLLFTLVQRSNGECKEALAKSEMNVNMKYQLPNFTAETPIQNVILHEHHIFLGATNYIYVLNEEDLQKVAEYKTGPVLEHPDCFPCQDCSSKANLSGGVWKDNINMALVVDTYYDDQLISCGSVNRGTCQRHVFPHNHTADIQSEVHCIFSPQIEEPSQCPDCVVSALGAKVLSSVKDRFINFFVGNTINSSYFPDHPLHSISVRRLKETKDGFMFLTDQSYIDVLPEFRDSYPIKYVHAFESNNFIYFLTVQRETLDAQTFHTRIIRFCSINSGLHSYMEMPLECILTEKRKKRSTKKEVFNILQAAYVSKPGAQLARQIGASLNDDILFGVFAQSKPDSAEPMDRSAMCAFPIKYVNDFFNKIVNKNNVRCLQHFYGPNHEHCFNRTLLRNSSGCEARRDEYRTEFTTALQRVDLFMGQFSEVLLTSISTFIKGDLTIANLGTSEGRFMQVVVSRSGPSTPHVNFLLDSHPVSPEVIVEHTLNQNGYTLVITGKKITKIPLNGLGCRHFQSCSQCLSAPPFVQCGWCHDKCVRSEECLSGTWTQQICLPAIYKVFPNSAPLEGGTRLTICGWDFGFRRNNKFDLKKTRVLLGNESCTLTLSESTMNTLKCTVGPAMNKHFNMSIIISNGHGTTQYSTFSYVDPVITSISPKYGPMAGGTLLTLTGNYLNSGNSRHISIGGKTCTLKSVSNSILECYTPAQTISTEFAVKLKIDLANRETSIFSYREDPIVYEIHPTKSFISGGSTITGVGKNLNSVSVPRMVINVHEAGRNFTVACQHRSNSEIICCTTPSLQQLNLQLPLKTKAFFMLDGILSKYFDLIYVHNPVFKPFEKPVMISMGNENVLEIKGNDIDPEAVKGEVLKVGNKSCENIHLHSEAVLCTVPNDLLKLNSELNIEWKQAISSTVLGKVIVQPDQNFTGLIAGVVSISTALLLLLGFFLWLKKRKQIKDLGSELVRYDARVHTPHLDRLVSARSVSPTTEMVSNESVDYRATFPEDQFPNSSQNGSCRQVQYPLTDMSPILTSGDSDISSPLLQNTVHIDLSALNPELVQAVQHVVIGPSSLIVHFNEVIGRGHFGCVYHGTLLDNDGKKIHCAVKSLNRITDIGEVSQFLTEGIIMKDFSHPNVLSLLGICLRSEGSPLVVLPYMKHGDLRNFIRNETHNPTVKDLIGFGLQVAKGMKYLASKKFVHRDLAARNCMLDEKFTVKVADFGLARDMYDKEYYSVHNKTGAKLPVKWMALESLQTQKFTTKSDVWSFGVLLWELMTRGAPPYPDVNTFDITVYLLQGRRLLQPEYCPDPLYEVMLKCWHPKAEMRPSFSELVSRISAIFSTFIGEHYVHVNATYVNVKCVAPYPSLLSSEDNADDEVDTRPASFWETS

[4] = target: Receptor-type tyrosine-protein kinase FLT3 (Homo sapiens) (UniProt P36888); assay: Inhibition of human FLT3 catalytic domain expressed in baculovirus assessed as substrate phosphorylation using fluorescence-labelled peptides as substrate at 9 uM after 90 mins by microfluidic peptide phosphorylation assay
Sequence of Receptor-type tyrosine-protein kinase FLT3 (Homo sapiens) (P36888 whole entry, the tested form may be a part): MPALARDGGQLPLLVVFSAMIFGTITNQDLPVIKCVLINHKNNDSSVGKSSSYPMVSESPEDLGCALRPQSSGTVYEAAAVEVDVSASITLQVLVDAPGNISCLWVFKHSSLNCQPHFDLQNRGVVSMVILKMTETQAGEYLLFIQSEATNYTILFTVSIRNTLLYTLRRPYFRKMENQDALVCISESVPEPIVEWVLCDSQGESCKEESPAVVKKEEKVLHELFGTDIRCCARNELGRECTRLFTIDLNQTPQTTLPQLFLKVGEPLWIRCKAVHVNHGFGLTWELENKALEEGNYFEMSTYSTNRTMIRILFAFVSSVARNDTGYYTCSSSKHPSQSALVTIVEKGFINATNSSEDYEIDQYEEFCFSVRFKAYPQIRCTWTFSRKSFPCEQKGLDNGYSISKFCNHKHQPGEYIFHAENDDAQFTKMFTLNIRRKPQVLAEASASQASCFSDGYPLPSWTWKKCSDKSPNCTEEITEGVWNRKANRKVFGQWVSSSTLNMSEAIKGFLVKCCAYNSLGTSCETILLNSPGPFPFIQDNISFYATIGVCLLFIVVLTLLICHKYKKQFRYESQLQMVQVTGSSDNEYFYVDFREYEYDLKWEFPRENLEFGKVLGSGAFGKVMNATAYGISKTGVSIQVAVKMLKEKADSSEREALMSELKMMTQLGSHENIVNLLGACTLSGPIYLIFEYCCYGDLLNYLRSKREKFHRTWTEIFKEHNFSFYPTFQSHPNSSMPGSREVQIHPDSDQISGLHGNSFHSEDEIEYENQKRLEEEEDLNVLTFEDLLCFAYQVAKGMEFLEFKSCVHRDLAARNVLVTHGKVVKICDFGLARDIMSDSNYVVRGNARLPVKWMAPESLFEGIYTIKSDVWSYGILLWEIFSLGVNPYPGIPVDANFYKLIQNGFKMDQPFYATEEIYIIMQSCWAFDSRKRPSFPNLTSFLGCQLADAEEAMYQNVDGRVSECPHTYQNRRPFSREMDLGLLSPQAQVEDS

[5] = target: Mitogen-activated protein kinase 3 (Homo sapiens) (UniProt P27361); assay: Inhibition of human full length ERK1 expressed in Escherichia coli cell assessed as substrate phosphorylation using fluorescence-labelled peptides as substrate at 9 uM after 90 mins by microfluidic peptide phosphorylation assay
Sequence of Mitogen-activated protein kinase 3 (Homo sapiens) (P27361 whole entry, the tested form may be a part): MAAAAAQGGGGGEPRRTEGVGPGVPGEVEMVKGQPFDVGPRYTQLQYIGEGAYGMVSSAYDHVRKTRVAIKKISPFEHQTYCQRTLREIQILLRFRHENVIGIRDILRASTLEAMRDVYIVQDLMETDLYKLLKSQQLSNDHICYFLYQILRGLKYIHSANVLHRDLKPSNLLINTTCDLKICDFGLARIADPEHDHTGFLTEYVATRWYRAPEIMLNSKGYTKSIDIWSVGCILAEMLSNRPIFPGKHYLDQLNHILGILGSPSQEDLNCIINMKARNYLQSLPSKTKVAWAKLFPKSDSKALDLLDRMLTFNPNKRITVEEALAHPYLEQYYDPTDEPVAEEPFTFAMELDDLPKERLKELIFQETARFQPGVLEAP

[6] = target: Protein kinase C alpha type (Homo sapiens) (UniProt P17252); assay: Inhibition of human truncated PKC alpha expressed in baculovirus assessed as substrate phosphorylation using fluorescence-labelled peptides as substrate at 9 uM after 90 mins by microfluidic peptide phosphorylation assay
[7] = target: Calcium/calmodulin-dependent protein kinase type II subunit gamma (Homo sapiens) (UniProt Q13555); settings: 0.1 uM
Sequence of Calcium/calmodulin-dependent protein kinase type II subunit gamma (Homo sapiens) (Q13555 whole entry, the tested form may be a part): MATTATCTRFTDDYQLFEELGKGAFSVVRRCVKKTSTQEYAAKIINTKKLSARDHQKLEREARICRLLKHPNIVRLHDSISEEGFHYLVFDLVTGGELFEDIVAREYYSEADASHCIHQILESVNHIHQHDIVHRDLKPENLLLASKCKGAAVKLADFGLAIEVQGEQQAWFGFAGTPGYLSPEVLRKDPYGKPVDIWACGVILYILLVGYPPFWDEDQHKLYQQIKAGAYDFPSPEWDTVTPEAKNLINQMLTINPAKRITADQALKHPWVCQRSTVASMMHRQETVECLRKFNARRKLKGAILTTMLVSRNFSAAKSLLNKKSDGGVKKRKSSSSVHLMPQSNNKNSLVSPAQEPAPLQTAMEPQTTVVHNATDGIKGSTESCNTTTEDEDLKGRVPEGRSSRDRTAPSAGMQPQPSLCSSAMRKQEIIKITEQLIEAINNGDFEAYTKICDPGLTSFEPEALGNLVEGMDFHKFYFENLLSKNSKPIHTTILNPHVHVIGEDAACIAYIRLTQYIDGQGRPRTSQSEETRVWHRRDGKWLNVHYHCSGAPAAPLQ
Description: Inhibition of human CAMK2 gamma catalytic domain expressed in baculovirus assessed as substrate phosphorylation using fluorescence-labelled peptides as substrate at 0.1 uM after 90 mins by microfluidic peptide phosphorylation assay

[8] = target: Fibroblast growth factor receptor 3 (Homo sapiens) (UniProt P22607); assay: Inhibition of human FGFR3 catalytic domain expressed in baculovirus assessed as substrate phosphorylation using fluorescence-labelled peptides as substrate at 0.1 uM after 90 mins by microfluidic peptide phosphorylation assay
Sequence of Fibroblast growth factor receptor 3 (Homo sapiens) (P22607 23-806 limits assumed): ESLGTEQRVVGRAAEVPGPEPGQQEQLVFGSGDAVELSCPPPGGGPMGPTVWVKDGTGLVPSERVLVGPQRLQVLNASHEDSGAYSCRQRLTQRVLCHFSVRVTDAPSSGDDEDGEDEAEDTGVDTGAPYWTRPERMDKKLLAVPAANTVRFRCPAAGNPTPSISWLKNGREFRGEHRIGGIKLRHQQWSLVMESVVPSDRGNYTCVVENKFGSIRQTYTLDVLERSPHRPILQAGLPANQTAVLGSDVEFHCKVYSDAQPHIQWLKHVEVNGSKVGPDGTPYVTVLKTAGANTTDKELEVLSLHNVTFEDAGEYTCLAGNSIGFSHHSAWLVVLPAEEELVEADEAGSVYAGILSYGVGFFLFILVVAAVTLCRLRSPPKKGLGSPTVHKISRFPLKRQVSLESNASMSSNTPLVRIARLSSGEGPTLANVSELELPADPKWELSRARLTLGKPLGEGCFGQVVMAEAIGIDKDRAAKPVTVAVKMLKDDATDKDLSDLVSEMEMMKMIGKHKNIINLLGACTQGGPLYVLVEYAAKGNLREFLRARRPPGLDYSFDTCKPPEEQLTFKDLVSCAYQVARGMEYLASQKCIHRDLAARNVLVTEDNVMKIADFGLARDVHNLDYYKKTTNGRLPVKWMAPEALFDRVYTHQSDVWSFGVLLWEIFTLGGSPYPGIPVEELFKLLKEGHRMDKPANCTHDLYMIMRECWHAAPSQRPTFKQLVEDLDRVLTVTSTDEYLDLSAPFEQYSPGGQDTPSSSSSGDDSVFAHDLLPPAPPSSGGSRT

[9] = tested on: Tyrosine-protein kinase ABL1 (Homo sapiens), P00519 [H396P]; assay: Inhibition of human truncated ABL H396P mutant expressed in baculovirus assessed as substrate phosphorylation using fluorescence-labelled peptides as substrate at 0.1 uM after 90 mins by microfluidic peptide phosphorylation assay
[10] = target: Protein kinase C theta type (Homo sapiens) (UniProt Q04759); assay: Inhibition of human truncated PKC theta expressed in baculovirus assessed as substrate phosphorylation using fluorescence-labelled peptides as substrate at […] after 90 mins by microfluidic peptide phosphorylation assay
[11] = target: T2, Testis-specific serine/threonine-protein kinase 2 (Homo sapiens) (UniProt Q96PF2); assay: Inhibition of human full length TSSK2 expressed in baculovirus assessed as substrate phosphorylation using fluorescence-labelled peptides as substrate at 0.06 uM after 90 mins by microfluidic peptide phosphorylation assay
T2 sequence (whole entry): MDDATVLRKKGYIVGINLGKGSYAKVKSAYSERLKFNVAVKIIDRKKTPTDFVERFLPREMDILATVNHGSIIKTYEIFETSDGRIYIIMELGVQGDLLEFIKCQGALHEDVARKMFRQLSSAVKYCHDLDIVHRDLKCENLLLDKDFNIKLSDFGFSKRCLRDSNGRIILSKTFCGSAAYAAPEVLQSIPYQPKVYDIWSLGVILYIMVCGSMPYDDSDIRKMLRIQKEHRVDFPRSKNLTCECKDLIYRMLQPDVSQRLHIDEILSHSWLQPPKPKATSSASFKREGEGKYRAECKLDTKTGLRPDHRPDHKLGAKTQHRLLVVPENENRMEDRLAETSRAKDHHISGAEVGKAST

[12] = species on record: Homo sapiens; assay: Inhibition of human full length PKA expressed in baculovirus assessed as substrate phosphorylation using fluorescence-labelled peptides as substrate at 8 uM after 90 mins by microfluidic peptide phosphorylation assay
[13] = target: Casein kinase I isoform alpha (Homo sapiens) (UniProt P48729); assay: Inhibition of human full length CSNK1A1 expressed in baculovirus assessed as substrate phosphorylation using fluorescence-labelled peptides as substrate at 70 uM after 90 mins by microfluidic peptide phosphorylation assay
[14] = target: T3, Serine/threonine-protein kinase Nek2 (Homo sapiens) (UniProt P51955); assay: Inhibition of human full length NEK2 expressed in baculovirus assessed as substrate phosphorylation using fluorescence-labelled peptides as substrate at 1000 uM after 90 mins by microfluidic peptide phosphorylation assay
T3 sequence (whole entry): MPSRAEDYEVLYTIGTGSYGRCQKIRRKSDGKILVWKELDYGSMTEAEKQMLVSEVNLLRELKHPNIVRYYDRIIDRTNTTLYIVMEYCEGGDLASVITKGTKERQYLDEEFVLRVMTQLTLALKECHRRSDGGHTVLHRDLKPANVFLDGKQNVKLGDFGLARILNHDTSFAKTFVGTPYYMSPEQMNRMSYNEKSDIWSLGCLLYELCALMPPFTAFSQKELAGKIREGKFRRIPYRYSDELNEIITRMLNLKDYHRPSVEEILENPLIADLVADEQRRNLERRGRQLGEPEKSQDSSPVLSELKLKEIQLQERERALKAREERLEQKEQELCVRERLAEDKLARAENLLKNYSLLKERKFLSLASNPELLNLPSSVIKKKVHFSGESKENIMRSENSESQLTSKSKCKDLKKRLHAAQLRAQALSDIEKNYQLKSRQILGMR

[15] = target: Cyclin-dependent kinase 2 (Homo sapiens) (UniProt P24941); assay: Inhibition of human full length CDK2 expressed in baculovirus assessed as substrate phosphorylation using fluorescence-labelled peptides as substrate at 1000 uM after 90 mins by microfluidic peptide phosphorylation assay

Clc1ccc(C2(c3ccc(-c4ncnc5[nH]cnc45)cc3)CCNCC2)cc1
inhibition [1]: 11%

c1nc(N2CCOCC2)c2nc[nH]c2n1
inhibition [2]: 70%
inhibition [3]: 23%

NCC1CN(c2ncnc3[nH]c4cnccc4c23)CCO1 (stereo not given)
inhibition [4]: 89.5%
inhibition [5]: 8.5%
inhibition [6]: 14.5%

C[C@H](CN(C)C)Oc1nc(Nc2cc3cccc(Cl)c3cn2)cnc1C#N
inhibition [7]: 0%
inhibition [8]: 5.5%
inhibition [9]: 1.5%

COC(=O)c1cnc(Nc2cnc(C#N)cn2)cc1NCC1CCNCC1
inhibition [10]: 4%

NC1(Cc2ccc(Cl)cc2)CCN(c2ncnc3[nH]ccc23)CC1
inhibition [11]: 3%

NCC1CCN(c2ncnc3[nH]ccc23)CC1
inhibition [12]: 29.5%

CNCc1ccc(-c2ncnc3[nH]cnc23)cc1
inhibition [13]: 45.5%

c1cnc2[nH]ccc2c1
inhibition [14]: 2.5%
inhibition [15]: 45.5%
